# Reference: ChEMBL document CHEMBL1201862, “PubChem BioAssay data set” (2004)
# Where a name gives a salt, the structure may show the parent alone.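 Test compounds were applied to cells in 96-well plates for 48 hours at 5 doses. GI50 = concentration required for 50% inhibition of growth.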 Active and inactive are the calls of the source. Cut-off read from the data, not from the text of the source: active = GI50 up to about 1.1 µM and inactive = higher.
# What was measured:
# Assay in all cases: NCI tumour cell line growth inhibition, 48 h
# [1] = tested on: TK-10
# [2] = tested on: KM12
# [3] = tested on: OVCAR-8
# [4] = tested on: COLO 205
# [5] = tested on: SK-MEL-28
# [6] = tested on: NCI-H226
# [7] = tested on: SW-620
# [8] = tested on: M19-MEL
# [9] = tested on: SN12C
# [10] = tested on: UACC-257
# [11] = tested on: HCT-15
# [12] = tested on: CAKI-1
# [13] = tested on: RXF 393
# [14] = tested on: M14
# [15] = tested on: SK-OV-3
# [16] = tested on: OVCAR-3
Structure (SMILES),GI50 [1],GI50 [2],GI50 [3],GI50 [4],GI50 [5],GI50 [6],GI50 [7],GI50 [8],GI50 [9],GI50 [10],GI50 [11] [µM],GI50 [12],GI50 [13],GI50 [14],GI50 [15],GI50 [16]
Oc1cc(-c2ccccc2)nc2cc(Cl)ccc12,27.7 µM (inactive),0.695 µM (active),0.74 µM (active),0.697 µM (active),17.9 µM (inactive),7.67 µM (inactive),0.34 µM (active),0.575 µM (active),3.3 µM (inactive),14.1 µM (inactive),0.387,0.283 µM (active),0.157 µM (active),0.555 µM (active),0.493 µM (active),
COC(=O)N/N=C(/CCN1CCCC1)CC(c1ccccc1)c1c(O)c2ccccc2oc1=O (stereo not drawn),> 100 µM (inactive),> 100 µM (inactive),> 100 µM (inactive),> 100 µM (inactive),> 100 µM (inactive),> 100 µM (inactive),> 100 µM (inactive),> 100 µM (inactive),> 100 µM (inactive),> 100 µM (inactive),> 100,> 100 µM (inactive),> 100 µM (inactive),> 100 µM (inactive),> 100 µM (inactive),> 100 µM (inactive)
O=c1cc2n(c(=O)[nH]1)C1OC(C(O)C1O)[C@H]2CCO (stereo partly drawn),> 100 µM (inactive),> 100 µM (inactive),> 100 µM (inactive),> 100 µM (inactive),> 100 µM (inactive),> 100 µM (inactive),> 100 µM (inactive),> 100 µM (inactive),> 100 µM (inactive),> 100 µM (inactive),,> 100 µM (inactive),> 100 µM (inactive),,> 100 µM (inactive),
O=C(CC1(O)C(=O)Nc2c(Cl)ccc(Cl)c21)c1ccc(Cl)cc1Cl (stereo not drawn),50.1 µM (inactive),16.5 µM (inactive),20.7 µM (inactive),17.6 µM (inactive),21.7 µM (inactive),15.5 µM (inactive),14.1 µM (inactive),7.16 µM (inactive),16.6 µM (inactive),11.6 µM (inactive),30.6,20.3 µM (inactive),25 µM (inactive),13.2 µM (inactive),21.9 µM (inactive),16.2 µM (inactive)
O=C(/N=C(/Nc1ccccc1)SCCS/C(=N\C(=O)c1ccccc1)Nc1ccccc1)c1ccccc1,> 100 µM (inactive),62.5 µM (inactive),71.1 µM (inactive),> 100 µM (inactive),49.8 µM (inactive),66.5 µM (inactive),> 100 µM (inactive),63.5 µM (inactive),63.1 µM (inactive),42.5 µM (inactive),54.8,33.7 µM (inactive),29.6 µM (inactive),60.5 µM (inactive),,67.9 µM (inactive)
[O-][S+]1Cc2ccccc2CSS1 (stereo not drawn),16.8 µM (inactive),16.8 µM (inactive),14.5 µM (inactive),14.2 µM (inactive),13.8 µM (inactive),27.2 µM (inactive),13.6 µM (inactive),20.2 µM (inactive),14.4 µM (inactive),14.5 µM (inactive),13,16.3 µM (inactive),3.85 µM (inactive),14 µM (inactive),44.3 µM (inactive),15.1 µM (inactive)
COC(=O)C1=CCS(=O)(=O)C1,> 100 µM (inactive),> 100 µM (inactive),> 100 µM (inactive),> 100 µM (inactive),> 100 µM (inactive),> 100 µM (inactive),> 100 µM (inactive),> 100 µM (inactive),> 100 µM (inactive),> 100 µM (inactive),> 100,> 100 µM (inactive),> 100 µM (inactive),> 100 µM (inactive),> 100 µM (inactive),> 100 µM (inactive)
O=C(c1ccccc1)[C@H]1Nc2ccc(Cl)cc2[C@H]2c3ccccc3O[C@H]21,16.7 µM (inactive),16.1 µM (inactive),16.4 µM (inactive),18.7 µM (inactive),12.3 µM (inactive),> 10 µM (inactive),16.5 µM (inactive),19.1 µM (inactive),14.1 µM (inactive),2.45 µM (inactive),14.4,14 µM (inactive),10.1 µM (inactive),16.3 µM (inactive),,13.1 µM (inactive)
Nc1cccc2c1-c1c(cccc1[N+](=O)[O-])C2=O,> 100 µM (inactive),> 100 µM (inactive),> 100 µM (inactive),> 100 µM (inactive),,> 100 µM (inactive),> 100 µM (inactive),> 100 µM (inactive),> 100 µM (inactive),> 100 µM (inactive),> 100,> 100 µM (inactive),> 100 µM (inactive),> 100 µM (inactive),> 100 µM (inactive),> 100 µM (inactive)
CCN(CC)CC(=O)/C=C/c1ccc(C)cc1,28.3 µM (inactive),17.5 µM (inactive),20.1 µM (inactive),18.8 µM (inactive),23.8 µM (inactive),22.1 µM (inactive),16.2 µM (inactive),17.6 µM (inactive),17.6 µM (inactive),21.6 µM (inactive),18.9,17.8 µM (inactive),24.3 µM (inactive),17.4 µM (inactive),29.2 µM (inactive),19.9 µM (inactive)
Brc1ccc(C2SCc3nc4ccccc4n32)cc1 (stereo not drawn),13.8 µM (inactive),5.98 µM (inactive),12.8 µM (inactive),12.7 µM (inactive),4.72 µM (inactive),17.4 µM (inactive),13.3 µM (inactive),12.4 µM (inactive),13.7 µM (inactive),,11.3,14.4 µM (inactive),7.45 µM (inactive),12.4 µM (inactive),16.7 µM (inactive),4.83 µM (inactive)
COc1ccc(C2(CN(C)C)COc3cc(OC)c(OC)cc3C2=O)cc1OC (stereo not drawn),63.5 µM (inactive),61.5 µM (inactive),53.1 µM (inactive),26.6 µM (inactive),> 100 µM (inactive),84.9 µM (inactive),21.6 µM (inactive),66.8 µM (inactive),77.1 µM (inactive),49.1 µM (inactive),,42.1 µM (inactive),31.8 µM (inactive),89.3 µM (inactive),> 100 µM (inactive),86.7 µM (inactive)
CCOc1cn(C2OC(CO)C(O)C2O)c(=O)[nH]c1=O (stereo not drawn),> 100 µM (inactive),> 100 µM (inactive),> 100 µM (inactive),95.5 µM (inactive),> 100 µM (inactive),> 100 µM (inactive),31.3 µM (inactive),> 100 µM (inactive),> 100 µM (inactive),> 100 µM (inactive),> 100,> 100 µM (inactive),> 100 µM (inactive),> 100 µM (inactive),> 100 µM (inactive),> 100 µM (inactive)
CCCCC1(C(NC(=O)c2ccccc2Cl)c2ccncc2)C(=O)N(c2ccccc2)N(c2ccccc2)C1=O (stereo not drawn),41 µM (inactive),81.3 µM (inactive),75 µM (inactive),22.6 µM (inactive),> 100 µM (inactive),66.8 µM (inactive),78.7 µM (inactive),47.5 µM (inactive),94.4 µM (inactive),29.7 µM (inactive),38.5,,37.6 µM (inactive),55.7 µM (inactive),74.1 µM (inactive),60 µM (inactive)
Cc1cc2c(CC(=O)O)n[nH]c2c(C(=O)O)c1C,> 100 µM (inactive),,> 100 µM (inactive),> 100 µM (inactive),> 100 µM (inactive),> 100 µM (inactive),> 100 µM (inactive),> 100 µM (inactive),> 100 µM (inactive),> 100 µM (inactive),> 100,,> 100 µM (inactive),,> 100 µM (inactive),> 100 µM (inactive)
O=c1/c(=C/c2ccc(Cl)cc2Cl)sc2nc3ccccc3n12,> 100 µM (inactive),> 100 µM (inactive),> 100 µM (inactive),> 100 µM (inactive),> 100 µM (inactive),> 100 µM (inactive),> 100 µM (inactive),> 100 µM (inactive),> 100 µM (inactive),> 100 µM (inactive),> 100,> 100 µM (inactive),> 100 µM (inactive),> 100 µM (inactive),> 100 µM (inactive),> 100 µM (inactive)
O=C1Sc2ccccc2C(=O)N2CSCC12 (stereo not drawn),> 100 µM (inactive),> 100 µM (inactive),> 100 µM (inactive),> 100 µM (inactive),> 100 µM (inactive),> 100 µM (inactive),> 100 µM (inactive),> 100 µM (inactive),> 100 µM (inactive),> 100 µM (inactive),,,> 100 µM (inactive),> 100 µM (inactive),> 100 µM (inactive),> 100 µM (inactive)
Cc1nccc2c1[nH]c1cc(O)ccc12 [HARMOL HYDROCHLORIDE],> 100 µM (inactive),55.8 µM (inactive),49.2 µM (inactive),> 100 µM (inactive),> 100 µM (inactive),96.6 µM (inactive),39.1 µM (inactive),> 100 µM (inactive),76.4 µM (inactive),82.4 µM (inactive),61.4,41.1 µM (inactive),> 100 µM (inactive),> 100 µM (inactive),> 100 µM (inactive),42.5 µM (inactive)
